Test results as given in patent US20040086983A1, “Method for producing a heterocyclic compound and an aromatic carboxylic acid having one or more hydroxyl groups, and modified aromatic ring dioxygenase” (priority 2000, published 2004).

What was measured:
[1] = tested on: modified biphenyl dioxygenase (modified bphA1::bphA2A3A4) expressed in E. coli (pKF2072); format: cell-based, Pseudomonas pseudoalcaligenes KF707; conditions: 5 mg substrate in 70 ml M9 medium, 28° C., 2 to 3 days, ratio of HPLC peak areas (max plot 230 to 350 nm)
Description: (§1) To start the conversion reaction, first, the necessary E. coli transformant cells were removed from the abovementioned glycerol stock culture with a platinum loop, suspended in 4 ml of LB medium containing 150 μg/ml ampicillin (Ap) and cultured at 28° C. for 7 to 8 hours at 175 rpm (pre-culture). […] The cells were recovered by centrifugation at 8,000 rpm for 5 minutes and suspended in 70 ml of M9 medium (supplemented with 150 μg/ml Ap, 0.4% (w/v) glucose, and 10 μg/ml thiamine) containing isopropyl-1-thio-β-D-galactopyranoside (IPTG) at a final concentration of 1 mM and 5 mg of a substrate, and the cultivation was further carried out at 28° C. for 2 to 3 days at 175 rpm. The substrate used was prepared by dissolving it in a solvent, such as ethanol, generally at a concentration of 10 mg/ml and added in an amount of 0.5 ml. On day 2 or 3 of the cultivation, the lipid was extracted by adding 70 ml of methanol and stirring for 30 minutes, and the supernatant was collected by centrifugation at 8,000 rpm for 5 minutes to obtain a crude lipid extract.
(§2) The HPLC analysis was carried out using a Puresil C18 column (4.6 mm×250 mm, Waters) at a rate of 1 ml/min. […] Conditions for development with solvents were as follows:
(§3) Solution A: water/methanol (50/50)
(§4) Solution B: methanol/2-propanol (60/40)
(§5) 0 to 5 min (solution A), 5 to 20 min (solution A)→(solution B) convex gradient (No. 3, Waters), 20 min−(solution B)
(§6) The conversion rate was expressed by a ratio of peak areas monitored at the wave length where the maximum absorbance was observed within the range from 230 to 350 nm (max plot).

[2] = tested on: biphenyl dioxygenase derived from the strain Pseudomonas pseudoalcaligenes KF707 (bphA1A2A3A4) expressed in E. coli (pKF6622); format: cell-based; conditions: 5 mg substrate in 70 ml M9 medium; for conversion rate: 28° C., 2 to 3 days, ratio of HPLC peak areas (max plot 230 to 350 nm); for conversion products observed: HPLC analysis
Description: as §1, §2, §3, §4, §5, §6

[3] = tested on: modified bphA1::bphA2A3A4 expressed in Streptomyces lividans TK21 (pIJ-2072); assay: Conversion experiment using recombinant actinomycetes (pIJ-2072), HPLC analysis; format: cell-based, Pseudomonas pseudoalcaligenes KF707; conditions: substrate 0.1 mg/ml, cells 10 mg/ml, 30° C., 2 days
Description: Plasmid pKF2072 was double-digested with SacI/SmaI, after which a 4.06 kb fragment containing the modified bphA1::bphA2A3A4 was excised. Then, vector pIJ6021 for actinomycetes (see E. Takano, J. White, C. J. Thompson, M. J. Bibb, Gene, 166, 133-137, 1995) was double-digested with NdeI-HindIII, and then the abovementioned 4.06 kb SacI-HindIII fragment and a synthesized DNA 5′-[…]-3′ were added. After annealing, treatment with a Klenow fragment enzyme was followed by a ligation reaction. E. coli JM109 strain was transformed, after which the objective plasmid pIJ-2072 was obtained. The pIJ-2072 was designed so that the modified bphA1 gene is located immediately downstream of a powerful actinomycetes promoter PtipA and its ribosome binding site, being followed by the bphA2A3A4 gene. Namely, the 5′ binding site is […]. The underlined segment is the ribosome binding site, and the modified bphA1 gene starts at ATG from nucleotide 18 to nucleotide 20. This plasmid pIJ-2072 was used to transform actinomycetes Streptomyces lividans TK21 (see D. A. Hopwood, M. J. Bibb, K. F. Chater et al., Genetic Manipulation of Streptomyces: A laboratory Manual, The John Innes Institute, Norwich, 1985). […]

SMILES	conversion rate [1] [%]	conversion rate [2] [%]	conversion products observed [2]	converted into its diol derivative, yield [3] [%]
c1ccc(Cc2ccccn2)cc1 [2-benzylpyridine]	57	11	–	–
c1ccc(Cc2cnsc2)cc1 [4-benzylisothiazole]	65	27	–	–
Oc1ccccc1-c1nc2ccccc2o1 [2-(2-hydroxyphenyl)-benzoxazole]	39	25	–	–
CCCCc1cc2ccccc2o1 [2-n-butylbenzofuran]	100	90	–	–
Cc1cccnc1-c1ccccc1 [3-methyl-2-phenylpyridine]	16	–	hardly observed	–
c1ccc(-c2ccncn2)cc1 [4-phenylpyrimidine]	100	–	hardly observed	–
CCCCCCc1ccsc1 [3-n-hexylthiophene]	100	99	–	–
O=C1CC(c2ccccc2)c2ccccc21 (centres unmarked) [3-phenyl-1-indanone]	97	93	–	–
Cc1ccc(-c2ccccn2)cc1 [2-(p-tolyl)pyridine]	96	61	–	–
c1ccc(-n2cccc2)cc1 [1-phenylpyrrole]	100	100	–	–
c1ccc(-c2nc3ccccc3o2)cc1 [2-phenylbenzoxazole]	100	45	–	–
c1ccc(-c2cc3ccccc3[nH]2)cc1 [2-phenylindole]	71	23	–	–
c1ccc(-c2nc3ccccc3s2)cc1 [2-phenylbenzothiazole]	81	36	–	–
c1ccc(-n2cccn2)cc1 [1-phenylpyrazole]	47	–	hardly observed	–
c1ccc(Cn2ccnc2)cc1 [1-benzylimidazole]	97	43	–	–
c1ccc(-c2ccc3ccccc3n2)cc1 [2-phenylquinoline]	89	53	–	~100
Cc1ccn(-c2ccccc2)n1 [3-methyl-1-phenylpyrazole]	100	63	–	–
